Converted amounts (≈) assume the structure as drawn. Like-named read-outs stand apart in the source and are kept apart here.

Usually MIC stands for the least concentration at which growth counts as inhibited. Low values mean inhibition by little substance, high ones a need for much substance. As usually defined, the MBC is the smallest concentration meeting the test's criterion for killing.

One assay concerns Fusarium roseum. To be noted: compound in methanol, more than 10 days at 20° C.
A further assay relates to Fusarium sambucinum. To be noted: compound in methanol, more than 10 days at 20° C.
Assay [1] has as its system Agrobacterium tumefaciens. The experiment in a line: Antibacterial activity (MIC and MBC) in TY medium. It counts as cell-based. To be noted: 36 h of culture at 30° C.; for MIC: TY medium; for MBC: plated on TY agar.
The test system of assay [2] is Agrobacterium tumefaciens, Pectobacterium atrosepticum and Dickeya dianthicola bacteria. The experiment in a line: Antibacterial activity, summary statements over the bacteria tested. It counts as cell-based. To be noted: for inhibition of the growth of the bacteria (in words): after 36 h of incubation at 30° C., compared with 4-NPO.
For assay [3], the system named is Pectobacterium atrosepticum. The experiment in a line: Antibacterial activity (MIC and MBC) in TY medium. It counts as cell-based. The note with it: 36 h of culture at 30° C.; for MIC: TY medium; for MBC: plated on TY agar.

Experimental for Fusarium roseum: (§1) The antifungal activity of the N-alkyl-glycosyl(di)amine derivatives of formula (I) and of the N-alkyl-glycamine derivatives of formula (III) synthesized according to the process of the invention was evaluated on two fungi: Fusarium roseum and Fusarium sambucinum.
(§2) For this, 500 μl of solution comprising the test derivative, dissolved in DMSO or methanol, are mixed with 19.5 ml of malt agar medium (Sigma aldrich) allowing the growth of these two Fusarium isolates. The test derivative is prepared in 2 ml of methanol, then mixed with 18 ml of malt agar medium (Sigma aldrich). A spot of 10 μl of culture of each Fusarium is then deposited at the center of each Petri dish. After 10 days of incubation at 20° C., the growth diameters are measured.
(§3) The range of concentrations of N-alkyl-glycosyl(di)amine derivatives of formula (I) tested ranges from 0.1 to 25 μmol/ml.
(§4) The Fusarium growth on media containing the various molecules is compared with that obtained only with DMSO or methanol.
(§5) The same antifungal evaluation protocol as the one previously described with the compound Ij was applied for other N-alkyl-glycosyl(di)amine derivatives of formula (I) and N-alkyl-glycamine derivatives of formula (III) at concentrations ranging from 1 to 20 μmol/ml.
(§6) 2 ml of solution comprising the test compound dissolved in methanol are mixed with 18 ml of agar malt medium (Sigma aldrich) allowing the growth of these two Fusarium isolates. A spot of 10 μl of culture of each Fusarium is then deposited at the center of each Petri dish. After more than 10 days of incubation at 20° C., the growth diameters are measured.
Experimental for Fusarium sambucinum: as §1, §2, §3, §4, §5, §6

`CCCCNC1OC(C)[C@H](O)C(O)C1O` (stereo partly drawn) [compound Ib]: the “Inhibition of the growth of the Fusarium roseum fungi” value was found to be 0% in the assay with Fusarium roseum (1 μmol/ml); 0% with Fusarium roseum (2.5 μmol/ml); 0% in the assay with Fusarium roseum (5 μmol/ml); 70% in the assay on Fusarium roseum (10 μmol/ml); 88% in the assay with Fusarium roseum (20 μmol/ml). For the same compound, the “Inhibition of the growth of the Fusarium sambucinum fungi” value with Fusarium sambucinum (1 μmol/ml) is reported as 0%; in the assay on Fusarium sambucinum (2.5 μmol/ml), 0%; in the assay with Fusarium sambucinum (5 μmol/ml) it was 4%; in the assay on Fusarium sambucinum (10 μmol/ml) it was 76%; with Fusarium sambucinum (20 μmol/ml) it was 90%.

For the compound `CCCCCNC1OC(C)[C@H](O)C(O)C1O` (stereo partly drawn) [compound Ic], the MIC is 125 µg/mL (≈ 536 µM) in assay [1] and 62.5 µg/mL (≈ 268 µM) in assay [3]. Also, the “Inhibition of the growth of the Fusarium roseum fungi” value in the assay on Fusarium roseum (1 μmol/ml) came out at 0%; with Fusarium roseum (2.5 μmol/ml), 18%; in the assay with Fusarium roseum (5 μmol/ml), 99%; in the assay with Fusarium roseum (10 μmol/ml), 99%; in the assay with Fusarium roseum (20 μmol/ml) it was 100%. In addition, the “inhibition of the growth of the bacteria (in words)” value (“inhibition … (in words)” below) in assay [2] is “inhibition of the growth of the bacteria was observed”. For the same compound, the “Inhibition of the growth of the Fusarium sambucinum fungi” value with Fusarium sambucinum (1 μmol/ml) was determined as 10%; in the assay with Fusarium sambucinum (2.5 μmol/ml), 33%; with Fusarium sambucinum (5 μmol/ml), 89%; in the assay with Fusarium sambucinum (10 μmol/ml), 90%; in the assay with Fusarium sambucinum (20 μmol/ml), 100%. In assay [3], this compound had an MBC greater than 500 µg/mL.

As for `CC1OC(NCCCCCCCCCCCCN)C(O)C(O)C1O` (stereo not drawn) [compound Ii], the minimal inhibitory concentration (MIC) in assay [1] was 16 µg/mL (≈ 46.2 µM); in assay [3] it was 8 µg/mL (≈ 23.1 µM). Besides, the values for the minimal bactericidal concentration (MBC) in assay [1] and in assay [3] were 32 µg/mL (≈ 92.3 µM) and 16 µg/mL (≈ 46.2 µM), respectively. The “Inhibition of the growth of the Fusarium roseum fungi” value with Fusarium roseum (1 μmol/ml) worked out at 0%; with Fusarium roseum (2.5 μmol/ml), 34%; in the assay on Fusarium roseum (5 μmol/ml), 93%; in the assay on Fusarium roseum (10 μmol/ml) it was 93%; in the assay with Fusarium roseum (20 μmol/ml) it was 100%. Besides, the “bactericidal activity (in words)” value in assay [2] is reported as “showed a bactericidal activity”. Moreover, the “Inhibition of the growth of the Fusarium sambucinum fungi” value in the assay with Fusarium sambucinum (1 μmol/ml) was 28%; in the assay with Fusarium sambucinum (2.5 μmol/ml), 60%; in the assay with Fusarium sambucinum (5 μmol/ml), 100%; in the assay on Fusarium sambucinum (10 μmol/ml), 100%; in the assay with Fusarium sambucinum (20 μmol/ml) it was 100%.

Consider `CCCCCNC1OC(C)[C@H](O)C(O)C1O` (stereo partly drawn) [compound Id], for which, in assay [1], the MIC turned out to be 62.5 µg/mL (≈ 268 µM) and the MBC came out at 250 µg/mL (≈ 1070 µM). For the same compound, in assay [2], the “bactericidal activity (in words)” value is listed as “showed a bactericidal activity” and the “inhibition … (in words)” value is given as “inhibition of the growth of the bacteria was observed”. Also, in assay [3], the minimum inhibitory concentration (MIC) worked out at 62.5 µg/mL (≈ 268 µM) and the MBC is 250 µg/mL (≈ 1070 µM).

With `CC1OC(NCCCCCNC2OC(C)[C@H](O)C(O)C2O)C(O)C(O)[C@H]1O` (stereo partly drawn) [Ig], the minimal inhibitory concentration (MIC) in assay [1] and in assay [3] was 125 µg/mL (≈ 317 µM) each time. The minimum bactericidal concentration (MBC) in assay [1] (Agrobacterium tumefaciens, 36 h, read-out: MBC) is 250 µg/mL (≈ 634 µM); in assay [3] (Pectobacterium atrosepticum, 36 h, read-out: MBC), 250 µg/mL (≈ 634 µM). In addition, the “bactericidal activity (in words)” value in assay [2] is recorded as “showed a bactericidal activity”. Also, the “inhibition … (in words)” value in assay [2] is listed as “inhibition of the growth of the bacteria was observed”.

Consider `CC1OC(NCCCCCNC2OC(C)[C@H](O)C(O)C2O)C(O)C(O)[C@H]1O` (stereo partly drawn) [compound If], for which the minimal inhibitory concentration (MIC) in assay [1] is greater than 500 µg/mL; in assay [3] it was 250 µg/mL (≈ 634 µM). Further, the “inhibition … (in words)” value in assay [2] is reported as “inhibition of the growth of the bacteria was observed”.

(Values after patent publication US9969762B2.)
